In patent US10030016B2 (Sunesis Pharmaceuticals, Inc., priority 2009, dated 2018):
pEC50, pIC50: −log10 of the molar value. Where a name gives a salt, the structure may show the parent alone. Read-outs that look alike come from different tables or passages of the source.

Legend:
[1] = test system: phospho-akt (Thr308) in PC-3 cells; test: Inhibition of phospho-akt (Thr308) in PC-3 cells, MSD phospho-akt 308 ELISA kit; assay type: cell-based; conditions: Homo sapiens, inhibition of P308 Akt in PC-3 cells, 2 hours, no serum, MSD, read-out: EC50
How it was run: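 PC-3 cells (15,000/well, overnight in 10% FBS medium) treated 2 h with three-fold diluted compounds in serum-free medium; DMSO high and 5 μM wortmannin low controls. Lysates captured on BSA-blocked MSD plates overnight at 4 °C, then 1 h antibody detection at RT; phospho-Akt Thr308 read by MSD electrochemiluminescence.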

PDK1 = PDK1 (Homo sapiens (Human), UniProt O15530); test: PDK1 kinase assay (coupled PDK1/AKT/FAM-crosstide assay, IMAP fluorescence polarization); assay type: biochemical; conditions: inhibition of phospo-PDK1 in vitro
How it was run: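 PDK1 activity is measured indirectly through activation of a PIFtide-fused AKT2 construct that phosphorylates FAM-crosstide (100 nM). The reaction uses 0.75 nM PDK1, 40 μM ATP, 30 min, 25° C, with IMAP polarization detection.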

Chain of PDK1 (O15530 51-359): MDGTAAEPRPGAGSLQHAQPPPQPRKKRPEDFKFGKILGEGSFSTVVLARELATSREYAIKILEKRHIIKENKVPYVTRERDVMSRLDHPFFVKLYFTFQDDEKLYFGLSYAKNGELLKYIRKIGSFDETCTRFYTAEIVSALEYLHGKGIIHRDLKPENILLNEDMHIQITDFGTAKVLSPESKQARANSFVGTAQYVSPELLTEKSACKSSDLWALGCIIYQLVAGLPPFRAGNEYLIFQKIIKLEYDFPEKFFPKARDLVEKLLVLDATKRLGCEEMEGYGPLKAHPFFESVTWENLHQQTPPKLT

SMILES | pEC50 [1] | pIC50 (PDK1) | pEC50 ([1]; PC-3, 2 h)
CN(Cc1ccc(F)c(F)c1)C(=O)c1cccnc1NCc1ccc(-c2ccc3ncnc(N)c3c2)s1 [Example 3.13, 2-({[5-(4-aminoquinazolin-6-yl)thiophen-2-yl]methyl}amino)-N-(3,4-difluorobenzyl)-N-methylpyridine-3-carboxamide (TFA salt)] | < 5.00 | 6.00 to 7.00 | –
C[C@@H](NC(=O)c1cccnc1NCc1ccc(-c2ccc3ncnc(N)c3c2)s1)c1ccc(F)cc1 [Example 3.14, 2-({[5-(4-aminoquinazolin-6-yl)thiophen-2-yl]methyl}amino)-N-[(1R)-1-{4-fluorophenyl)ethyl]pyridine-3-carboxamide (TFA salt)] | < 5.00 | < 5.30 | –
C[C@H](NC(=O)c1cccnc1NCc1ccc(-c2ccc3ncnc(N)c3c2)s1)c1ccc(F)cc1 [Example 3.15, 2-({[5-(4-aminoquinazolin-6-yl)thiophen-2-yl]methyl}amino)-N-[(1S)-1-(4-fluorophenyl)ethyl] pyridine-3-carboxamide] | > 6.00 | 6.00 to 7.00 | –
Nc1ncnc2ccc(-c3ccc(CNc4ncccc4C(=O)NCc4ccc(F)c(F)c4F)s3)cc12 [Example 3.16, 2-({[5-(4-aminoquinazolin-6-yl)thiophen-2-yl]methyl}amino)-N-(2,3,4-trifluorobenzyl)pyridine-3-carboxamide (TFA salt)] | 5.00 to 6.00 | > 7.00 | –
Cc1ccc(CNC(=O)c2cccnc2NCc2ccc(-c3ccc4ncnc(N)c4c3)s2)o1 [Example 3.17, 2-({[5-(4-aminoquinazolin-6-yl)thiophen-2-yl]methyl}amino)-N-[(5-methylfuran-2-yl)methyl] pyridine-3-carboxamide (TFA salt)] | – | 6.00 to 7.00 | < 5.00
Cc1ccc(F)cc1CNC(=O)c1cccnc1NCc1ccc(-c2ccc3ncnc(N)c3c2)s1 [Example 3.18, 2-({[5-(4-aminoquinazolin-6-yl)thiophen-2-yl]methyl}amino)-N-(5-fluoro-2-methylbenzyl) pyridine-3-carboxamide (TFA salt)] | < 5.00 | 6.00 to 7.00 | –
CC(NC(=O)c1cccnc1NCc1ccc(-c2ccc3ncnc(N)c3c2)s1)c1ccc(F)c(F)c1 (centres unmarked) [Example 3.19, 2-({[5-(4-aminoquinazolin-6-yl)thiophen-2-yl]methyl}amino)-N-[1-(3,4-difluorophenyl)ethyl] pyridine-3-carboxamide (TFA salt)] | – | 6.00 to 7.00 | < 5.00
C[C@@H](NC(=O)c1cccnc1NCc1ccc(-c2ccc3ncnc(N)c3c2)s1)c1cccc(F)c1 [Example 3.20, 2-({[5-(4-aminoquinazolin-6-yl)thiophen-2-yl]methyl}amino)-N-[(1R)-1-(3-fluorophenyl)ethyl] pyridine-3-carboxamide (TFA salt)] | < 5.00 | < 5.30 | –
C[C@H](NC(=O)c1cccnc1NCc1ccc(-c2ccc3ncnc(N)c3c2)s1)c1cccc(F)c1 [Example 3.21, 2-({[5-(4-aminoquinazolin-6-yl)thiophen-2-yl]methyl}amino)-N-[(1S)-1-(3-fluorophenyl)ethyl]pyridine-3-carboxamide (TFA salt)] | 5.00 to 6.00 | > 7.00 | –
Nc1ncnc2ccc(-c3ccc(CNc4ncccc4C(=O)NCc4ccc(Cl)cc4)s3)cc12 [Example 3.22, 2-({[5-(4-aminoquinazolin-6-yl)thiophen-2-yl]methyl}amino)-N-(4-chlorobenzyl)pyridine-3-carboxamide (TFA salt)] | – | 6.00 to 7.00 | < 5.00
Nc1ncnc2ccc(-c3ccc(CNc4ncccc4C(=O)NCc4cc(F)c(F)c(F)c4)s3)cc12 [Example 3.23, 2-({[5-(4-aminoquinazolin-6-yl)thiophen-2-yl]methyl}amino)-N-(3,4,5-trifluorobenzyl)pyridine-3-carboxamide (TFA salt)] | > 6.00 | > 7.00 | –
Nc1ncnc2ccc(-c3ccc(CNc4ncccc4C(=O)Nc4ccc(F)c(F)c4)s3)cc12 [Example 3.24, 2-({[5-(4-aminoquinazolin-6-yl)thiophen-2-yl]methyl}amino)-N-(3,4-difluorophenyl)pyridine-3-carboxamide (TFA salt)] | 5.00 to 6.00 | 6.00 to 7.00 | –
Nc1ncnc2ccc(-c3ccc(CNc4ncccc4C(=O)NCc4ccccn4)s3)cc12 [Example 3.25, 2-({[5-(4-aminoquinazolin-6-yl)thiophen-2-yl]methyl}amino)-N-(pyridin-2-ylmethyl)pyridine-3-carboxamide (TFA salt)] | < 5.00 | 5.30 to 6.00 | –

Now from value to compound:

pEC50 [1] | pIC50 (PDK1) | pEC50 ([1]; PC-3, 2 h) | SMILES
< 5.00 | < 5.30 | – | Nc1ncnc2ccc(-c3ccc(CNc4ncccc4C(=O)Nc4ccc(C(F)(F)F)cc4)s3)cc12 [Example 3.26, 2-({[5-(4-aminoquinazolin-6-yl)thiophen-2-yl]methyl}amino)-N-[4-(trifluoromethyl)phenyl] pyridine-3-carboxamide (TFA salt)]
– | 6.00 to 7.00 | < 5.00 | Nc1ncnc2ccc(-c3ccc(CNc4ncccc4C(=O)NCc4cccc(Cl)c4)s3)cc12 [Example 3.27, 2-({[5-(4-aminoquinazolin-6-yl)thiophen-2-yl]methyl}amino)-N-(3-chlorobenzyl) pyridine-3-carboxamide (TFA salt)]
– | 5.30 to 6.00 | < 5.00 | Nc1ncnc2ccc(-c3ccc(CNc4ncccc4C(=O)NCc4ccc(C(F)(F)F)o4)s3)cc12 [Example 3.28, 2-({[5-(4-aminoquinazolin-6-yl)thiophen-2-yl]methyl}amino)-N-{[5-(trifluoromethyl)furan-2-yl]methyl}pyridine-3-carboxamide (bis TFA salt)]
5.00 to 6.00 | 6.00 to 7.00 | – | Nc1ncnc2ccc(-c3ccc(CNc4ncccc4C(=O)NCc4ccc(Cl)c(Cl)c4)s3)cc12 [Example 3.29, 2-({[5-(4-aminoquinazolin-6-yl)thiophen-2-yl]methyl}amino)-N-(3,4-dichlorobenzyl) pyridine-3-carboxamide (TFA salt)]
< 5.00 | < 5.30 | – | Nc1ncnc2ccc(-c3ccc(CNc4ncccc4C(=O)NC4CCCCCC4)s3)cc12 [Example 3.30, 2-({[5-(4-aminoquinazolin-6-yl)thiophen-2-yl]methyl}amino)-N-cycloheptylpyridine-3-carboxamide (TFA salt)]
< 5.00 | < 5.30 | – | Nc1ncnc2ccc(-c3ccc(CNc4ncccc4C(=O)Nc4ccccc4Cl)s3)cc12 [Example 3.31, 2-({[5-(4-aminoquinazolin-6-yl)thiophen-2-yl]methyl}amino)-N-(2-chlorophenyl)pyridine-3-carboxamide (TFA salt)]
< 5.00 | < 5.30 | – | Nc1ncnc2ccc(-c3ccc(CNc4ncccc4C(=O)Nc4cccc5cccnc45)s3)cc12 [Example 3.32, 2-({[5-(4-aminoquinazolin-6-yl)thiophen-2-yl]methyl}amino)-N-(quinolin-8-yl)pyridine-3-carboxamide (TFA salt)]
– | 6.00 to 7.00 | < 5.00 | N#Cc1ccc(NC(=O)c2cccnc2NCc2ccc(-c3ccc4ncnc(N)c4c3)s2)cc1 [Example 3.33, 2-({[5-(4-aminoquinazolin-6-yl)thiophen-2-yl]methyl}amino)-N-(4-cyanophenyl)pyridine-3-carboxamide (TFA salt)]
5.00 to 6.00 | < 5.30 | – | Nc1ncnc2ccc(-c3ccc(CNc4ncccc4C(=O)N4CCc5ccccc5C4)s3)cc12 [Example 3.34, 2-({[5-(4-aminoquinazolin-6-yl)thiophen-2-yl]methyl}amino)-pyridin-3-yl](3,4-dihydroiso-quinolin-2(1H)-yl)methanone (TFA salt)]
5.00 to 6.00 | < 5.30 | – | Nc1ncnc2ccc(-c3ccc(CNc4ncccc4C(=O)NCCN4CCCC4)s3)cc12 [Example 3.36, 2-({[5-(4-aminoquinazolin-6-yl)thiophen-2-yl]methyl}amino)-N-[2-(pyrrolidin-1-yl)ethyl] pyridine-3-carboxamide (TFA salt)]
5.00 to 6.00 | 6.00 to 7.00 | – | Nc1ncnc2ccc(-c3ccc(CNc4ncccc4C(=O)NCc4cccnc4)s3)cc12 [Example 3.37, 2-({[5-(4-aminoquinazolin-6-yl)thiophen-2-yl]methyl}amino)-N-(pyridin-3-ylmethyl) pyridine-3-carboxamide (TFA salt)]
< 5.00 | 5.30 to 6.00 | – | Nc1ncnc2ccc(-c3ccc(CNc4ncccc4C(=O)NCc4ccncc4)s3)cc12 [Example 3.38, 2-({[5-(4-aminoquinazolin-6-yl)thiophen-2-yl]methyl}amino)-N-(pyridin-4-ylmethyl) pyridine-3-carboxamide (TFA salt)]
> 6.00 | > 7.00 | – | Nc1ncnc2ccc(-c3ccc(CNc4ncccc4C(=O)NCc4cc(F)cc(F)c4)s3)cc12 [Example 3.39, 2-({[5-(4-aminoquinazolin-6-yl)thiophen-2-yl]methyl}amino)-N-(3,5-difluorobenzyl) pyridine-3-carboxamide (TFA salt)]
5.00 to 6.00 | 6.00 to 7.00 | – | Nc1ncnc2ccc(-c3ccc(CNc4ncccc4C(=O)Nc4cc(F)c(F)c(F)c4)s3)cc12 [Example 3.40, 2-({[5-(4-aminoquinazolin-6-yl)thiophen-2-yl]methyl}amino)-N-(3,4,5-trifluorophenyl) pyridine-3-carboxamide (TFA salt)]
– | > 7.00 | > 6.00 | C[C@H](NC(=O)c1cccnc1NCc1ccc(-c2ccc3ncnc(N)c3c2)s1)c1ccc(F)c(F)c1 [Example 3.41, (S)-2-(((5-(4-aminoquinazolin-6-yl)thiophen-2-yl)methyl)amino)-N-(1-(3,4-difluorophenyl)ethyl) nicotinamide (TFA salt)]
